Test results taken from patent US20210363495A1, “CULTURE MEDIA FOR PLURIPOTENT STEM CELLS” (Yeda Research and Development Co. Ltd., priority 2019, published 2021).

Experiments:
human naïve PSCs [1] = experiment: RT-PCR analysis for naïve pluripotency markers; type: cell-based; settings: ENHSM with and without P38i/JNKi, normalized to ACTIN, primed set as 1
Description: (§1) FIGS. 2A-I. Optimizations for enhanced human naive pluripotency conditions. A. W3G4 METTL3 TET-OFF cells were maintained in the presence of DOX for up to 4 passages in different conditions and stained for OCT4 to quantify percentage of cells that retained their pluripotency. […] B. Quantification of ΔPE-OCT4-GFP knock in naïve pluripotency reporter, in variety of primed (red) and naïve conditions (blue). Mean fluorescence intensity values (MFI) are indicated. […] C. Quantification of ΔPE-OCT4-GFP knock in naïve pluripotency reporter, in optimized naïve conditions and various concentrations of GSK3 inhibitor that leads to WNT activation (CHIR99021 is used as GSK3 inhibitor and is abbreviated as CHIR). […] D. Phase images showing how supplementation of 0.2% Geltrex (Life Technologies) in the growth media and SRCi additively enhance domed like morphology of human naïve PSCs in ENHSM conditions optimized herein. E. RT-PCR analysis for naïve pluripotency markers in ENHSM conditions with and without P38i/JNKi (BIRB0796). Values were normalized to ACTIN and values in Primed conditions were set as 1. […] F. W3G4 METTL3 TET-OFF cells were maintained in the presence of DOX for up to 4 passages in the optimized ENHSM conditions but without TNKi, in order to see if other molecules can substitute for TNKi after all optimizations were applies (e.g. adding of Geltrex, concentration optimization). […]

human naïve PSCs [2] = experiment: Pluripotency maintenance of naïve cells in ENHSM supplemented with CHIR; type: cell-based; settings: ENHSM plus CHIR; TGFB inhibition, depleted DNA and RNA methylation or no L-Glutamine
Description: The present inventors next aimed to define the signaling pathway downstream of Tankyrase inhibition facilitating human naïve PSCs stabilization. Bcat-KO ESCs had higher levels of Oct4-GFP in ENHSM condition, and upon removal of XAV939 GFP level was not decreased in KO, but in WT ESCs. A similar trend was shown in RT-PCR analysis. Supplementing naïve cells with WNT stimulator compromised delta-PE-OCT4-GFP levels, compromised their domed shape like morphology and their transcriptional profile. Using a tamoxifen induced Beta-Catenin-ERT transgene, the present inventors noted that delta-PE-OCT4-GFP signal and domed morphology were compromised upon tamoxifen stimulation. […] Similarly, while KO of TCF3 boosts mouse naïve pluripotency and alleviates the need for WNT stimulation, TCF3 KO ESCs still required WNTi and/or SRCi to maintain their naïve identity in humans. […] Collectively, these findings clearly establish WNT as a priming agent for human, but not mouse, naïve pluripotency and establish that KO of beta-catenin can substitute for Tankyrase inhibition.

[3] = tested on: WIBR3 hESC line carrying ΔPE-OCT4-GFP reporter; experiment: ΔPE-OCT4-GFP knock in naïve pluripotency reporter quantification; type: cell-based, human
Description: as §1

primed human PSCs = experiment: Single cell cloning efficiency; type: cell-based; settings: primed cells, ROCK inhibitor used
PKCμ = target: T1, PKCμ (Homo sapiens, UniProt Q15139); settings: cited from earlier work
T1 sequence (Q15139 1-912): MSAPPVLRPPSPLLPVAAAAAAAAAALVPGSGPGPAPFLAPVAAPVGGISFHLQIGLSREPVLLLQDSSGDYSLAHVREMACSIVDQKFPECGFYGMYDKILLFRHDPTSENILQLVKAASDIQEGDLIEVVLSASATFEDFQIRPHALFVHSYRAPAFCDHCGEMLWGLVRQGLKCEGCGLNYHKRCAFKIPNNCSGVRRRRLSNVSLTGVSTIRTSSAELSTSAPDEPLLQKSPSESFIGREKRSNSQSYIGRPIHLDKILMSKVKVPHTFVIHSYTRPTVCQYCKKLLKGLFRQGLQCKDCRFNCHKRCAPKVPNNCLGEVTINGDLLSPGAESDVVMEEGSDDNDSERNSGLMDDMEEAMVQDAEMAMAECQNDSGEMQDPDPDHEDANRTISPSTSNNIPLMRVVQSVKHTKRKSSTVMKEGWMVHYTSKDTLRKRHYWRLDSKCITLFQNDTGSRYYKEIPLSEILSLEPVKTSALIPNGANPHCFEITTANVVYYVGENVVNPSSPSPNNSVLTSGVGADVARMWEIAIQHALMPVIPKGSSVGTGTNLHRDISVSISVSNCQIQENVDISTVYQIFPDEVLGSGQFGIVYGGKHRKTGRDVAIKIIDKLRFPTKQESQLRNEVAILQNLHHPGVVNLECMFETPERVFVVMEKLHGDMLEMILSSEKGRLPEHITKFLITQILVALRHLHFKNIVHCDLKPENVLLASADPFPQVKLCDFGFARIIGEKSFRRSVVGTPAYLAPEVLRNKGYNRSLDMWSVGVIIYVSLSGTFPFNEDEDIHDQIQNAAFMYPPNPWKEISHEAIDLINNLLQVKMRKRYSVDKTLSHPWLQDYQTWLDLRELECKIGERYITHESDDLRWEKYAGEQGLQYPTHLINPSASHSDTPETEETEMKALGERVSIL

PKCγ [4] = target: PKCγ (Homo sapiens, UniProt P05129); settings: third value of the list; cited from earlier work
PKCα = PKCα (Homo sapiens, UniProt P17252); settings: cited from earlier work
PKCβ = PKCβ (Homo sapiens, UniProt P05771); settings: cited from earlier work
PKCγ [5] = settings: fourth value of the list; read-out: IC50 PKCγ (second mention); cited from earlier work
PKCζ = target: T2, PKCζ (Homo sapiens, UniProt Q05513); settings: cited from earlier work
T2 sequence (Q05513 1-592): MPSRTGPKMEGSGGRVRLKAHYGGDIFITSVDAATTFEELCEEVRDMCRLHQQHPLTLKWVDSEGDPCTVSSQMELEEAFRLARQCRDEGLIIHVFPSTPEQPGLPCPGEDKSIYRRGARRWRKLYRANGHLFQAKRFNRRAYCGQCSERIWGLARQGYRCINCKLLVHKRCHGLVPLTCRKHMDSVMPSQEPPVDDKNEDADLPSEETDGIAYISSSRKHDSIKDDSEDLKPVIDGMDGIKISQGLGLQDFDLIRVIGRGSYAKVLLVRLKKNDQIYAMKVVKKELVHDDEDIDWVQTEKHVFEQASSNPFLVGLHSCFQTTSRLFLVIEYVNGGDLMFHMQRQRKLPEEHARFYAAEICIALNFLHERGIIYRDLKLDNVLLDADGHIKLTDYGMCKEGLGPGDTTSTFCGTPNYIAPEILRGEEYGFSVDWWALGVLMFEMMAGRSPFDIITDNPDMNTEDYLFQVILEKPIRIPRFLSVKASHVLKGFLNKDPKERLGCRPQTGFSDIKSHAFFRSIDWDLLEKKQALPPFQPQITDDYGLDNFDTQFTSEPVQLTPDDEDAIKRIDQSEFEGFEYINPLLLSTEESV

[6] = tested on: Tet-OFF-METTL3 hESCs (WIBR3, clone W3G4); experiment: Pluripotency (OCT4+) maintenance of Tet-OFF-METTL3 hESCs in the presence of DOX; type: cell-based, human; settings: individual small molecule supplemented to NHSM, Geltrex coated plates, no MEFs
Description: FIGS. 1A-I Defining enhanced human naive conditions compatible with expanding METTL3 depleted PSCs. A. Strategy for generating human ESCs with TET-OFF regulated expression of METTL3 m^6A methyltransferase enzyme. B. Western blot analysis for correctly engineered human ESCs with TET-OFF METTL3 regulation, before and after DOX treatment. C. Representative images for human METTL3 TET-OFF engineered cells in different conditions with or without DOX addition. […] D. Scheme depicting strategy for conducting a screen for identifying a small molecule or cytokine additive to previously described human naïve NHSM conditions that allow maintain pluripotency in TET-OFF METTL3 human stem cells after adding DOX. E. W3G4 cells were maintained in the presence of DOX for up to 4 passages in different conditions and stained for OCT4 to quantify percentage of cells that retained their pluripotency. […] F. OCT4+ pluripotency maintenance in NHSM conditions supplemented with various TNK inhibitors and DOX to repress METTL3 expression. G. Quantification of ΔPE-OCT4-GFP knock in naïve pluripotency reporter, in variety of primed (red) and naïve conditions (blue). Mean fluorescence intensity values (MFI) are indicated. H. Quantification of ΔPE-OCT4-GFP knock in naïve pluripotency reporter in variety of conditions with various concentrations of ACTIVIN A recombinant cytokine. […] I. Representative phase contrast images in human ESCs expanded in NHSM+TNKi conditions showing their maintenance of pluripotent domed-like morphology even in the presence of FGFRi.
In order to identify culture conditions which capture human naïve PSC, the present inventors looked for agents which are capable of maintaining stem cells in a pluripotent state in the absence of defined epigenetic repressors. Human knock-in WIBR3 hESC lines with conditional inducible ablation expression of METTL3 were engineered (FIG. 1A). This was carried out by introducing an exogenous METTL3 transgene under the regulation of Tet-OFF promoter (Liao et al., 2015), followed by CRISPR/Cas9 mediated ablation of both endogenous human METTL3 alleles. Two resultant clones were validated for METTL3 expression only from the exogenous allele, which can be shut off by addition of DOX to the media (called Tet-OFF-METTL3 lines) (FIG. 1B).
The latter further support rewiring toward naïve pluripotency in NHSM conditions. […] Candidate molecules were tested for the ability to enrich NHSM conditions that allow Tet-OFF-METTL3 to be maintained on Geltrex coated plates in the presence of DOX.
NHSM conditions were supplemented with individual small molecules (FIG. 1D). […] IWR1 is a WNT inhibitor (WNTi) small molecule that stabilizes AXIN protein in the cytoplasm by inhibiting Tankyrase enzyme (abbreviated herein as TNK inhibitor—TNKi).

PKCβ, sequence (P05771 whole entry, species assumed): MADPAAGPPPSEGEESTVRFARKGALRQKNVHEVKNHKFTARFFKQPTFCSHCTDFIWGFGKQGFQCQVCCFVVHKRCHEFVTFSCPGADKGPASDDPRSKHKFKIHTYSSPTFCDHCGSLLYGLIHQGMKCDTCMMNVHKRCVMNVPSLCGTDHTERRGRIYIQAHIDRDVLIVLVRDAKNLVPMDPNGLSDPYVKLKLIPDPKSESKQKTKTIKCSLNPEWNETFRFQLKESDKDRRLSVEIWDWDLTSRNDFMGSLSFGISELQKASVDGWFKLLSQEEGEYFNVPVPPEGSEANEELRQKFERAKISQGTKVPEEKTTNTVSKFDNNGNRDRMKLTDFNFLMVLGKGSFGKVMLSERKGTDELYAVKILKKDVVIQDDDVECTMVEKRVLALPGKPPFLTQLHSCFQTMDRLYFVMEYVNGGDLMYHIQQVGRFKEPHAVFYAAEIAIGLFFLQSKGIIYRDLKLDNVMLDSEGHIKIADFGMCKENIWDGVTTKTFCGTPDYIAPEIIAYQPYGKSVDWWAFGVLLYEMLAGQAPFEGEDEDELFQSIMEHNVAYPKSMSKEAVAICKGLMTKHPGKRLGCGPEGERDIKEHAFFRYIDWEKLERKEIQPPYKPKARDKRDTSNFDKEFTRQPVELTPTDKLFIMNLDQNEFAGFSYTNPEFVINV

Question: Which “naïve pluripotency marker expression” value (human naïve PSCs [1]) does the source give for `Cc1ccc(-n2nc(C(C)(C)C)cc2NC(=O)Nc2ccc(OCCN3CCOCC3)c3ccccc23)cc1` [BIRB0796] here?
Answer: boosts expression of naïve pluripotency markers

Question: For `Cc1c[nH]c(-c2cnc(NCCNc3ccc(C#N)cn3)nc2-c2ccc(Cl)cc2Cl)n1` [CHIR99021], which “ability to maintain pluripotency” value (human naïve PSCs [2]) is on record?
Answer: compromised their ability to maintain pluripotency

Question: What about the ΔPE-OCT4-GFP intensity ([3]; optimized naïve conditions, various concentrations of GSK3 inhibitor) of the same compound?
Answer: negatively influences human naive pluripotency

Question: With `C[C@@H](N)[C@H]1CC[C@H](C(=O)Nc2ccncc2)CC1` [Condition Y27632] as the compound, how does the single cell cloning (primed human PSCs) read?
Answer: 10-20%

Question: What does the source list for `COc1ccc2c(c1)c(C1=C(c3c[nH]c4ccccc34)C(=O)NC1=O)cn2CCCN(C)C` [Go6983]?
Answer: IC50 (PKCμ): 20000 nM; IC50 (PKCγ [4]): 6 nM; IC50 (PKCα): 7 nM; IC50 (PKCβ): 7 nM; IC50 (PKCγ [5]): 10 nM; IC50 (PKCζ): 60 nM

Question: With `O=C(Nc1cccc2cccnc12)c1ccc(N2C(=O)[C@@H]3[C@H](C2=O)[C@@H]2C=C[C@H]3C2)cc1` [IWR1] as the compound, how does the “expansion of Tet-OFF-METTL3 on DOX” value [6] read?
Answer: enabled the expansion of Tet-OFF-METTL3 on DOX with great homogeneity

Question: And the ΔPE-OCT4-GFP expression ([3]; TNKi supplemented to NHSM conditions)?
Answer: boosts expression of GFP
